Measurements reported in publication PMC5442318, “Hundreds of dual-stage antimalarial molecules discovered by a functional gametocyte screen” (Nature Communications, 2017).

Experiments:
[1] = system: P. falciparum stages IV–V gametocytes; experiment: Gametocytocidal ATP-depletion assay (gametocyte ATP bioluminescence); type: cell-based, Plasmodium falciparum
Outline: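 Read-out is luciferase luminescence of parasite ATP (BacTiter-Glo), standing in for viability. Double-purified mature stage IV–V gametocytes, 12,500 per well, were exposed 48 h at 37 °C in low-O2 gas; screening concentration 2 μM.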

HepG2 cells = experiment: HepG2 cytotoxicity assay; type: cell-based; conditions: mean
Outline: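 Luminescent read-out (CellTiter-Glo) taken 10 min after reagent addition at RT; plates and reagent pre-equilibrated 30 min at RT.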

[2] = system: P. falciparum stage V female gametocytes; experiment: P. falciparum female gametocyte activation assay (Pf FGAA), 24 h or 48 h preincubation, Pfs25 expression readout; type: cell-based, Plasmodium falciparum NF54; conditions: mean; read-out: Gametocytes mean Pf FGAA IC50
Outline: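 Female activation, triggered by xanthurenic acid and cooling, was scored by imaging Cy3-labelled anti-Pfs25 female gametes after 24 h at 26 °C. Beforehand, purified NF54 stage V gametocytes had been incubated with compound for either 24 h or 48 h (37 °C, 3% O2). Values are pIC50 from full-curve regression.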

[3] = system: P. falciparum asexual blood stages; conditions: TCAMS data; ref 1 (Gamo et al., 2010); read-out: Pf Asexual blood stages XC50; cited from earlier work

IC50 [2]	SMILES	Gametocytes mean ATP inhibition at 2µM (%) [1]	HepG2 cells mean TOX50 (HepG2 cells)	IC50 [3]
580 nM	Clc1ccc(/N=C(/NCCCCCCCN/C(=N\c2ccc(Cl)cc2)Nc2ccc(Cl)cc2)Nc2ccc(Cl)cc2)cc1 [TCMDC-137529]	15.83%	2.00 µM	320 nM
720 nM	COc1ccc(CNCCCCCCNCc2ccc(OC)c3ccccc23)c2ccccc12.Cl [TCMDC-137631]	16.64%	1.82 µM	580 nM
3490 nM	CN1CCN(CCNc2c3ccccc3nc3c2ccc2ccccc23)CC1.Cl [TCMDC-137723]	67.71%	5.07 µM	610 nM
5600 nM	COc1ccc2nc(-c3ccccc3)cc(NCCCNc3cc(-c4ccccc4)nc4ccc(OC)cc34)c2c1.Cl [TCMDC-137734]	2.17%	70.79 µM	120 nM
850 nM	Cl.c1ccc2c(NCCCCCCCCCNc3ccnc4ccccc34)ccnc2c1 [TCMDC-137750]	35.04%	1.50 µM	120 nM
1020 nM	Cl.c1ccc2c(NCCCCCCCCNc3ccnc4ccccc34)ccnc2c1 [TCMDC-137751]	39.31%	1.15 µM	160 nM
7250 nM	CC1CCCCN1CCCNc1nc(NCc2ccccc2)c2ccccc2n1 (centres unmarked) [TCMDC-137771]	38.73%	14.62 µM	950 nM
1910 nM	Clc1ccc(Nc2nc3ccc(Cl)cc3nc2Nc2ccc(Cl)cc2)cc1 [TCMDC-137772]	27.62%	7.86 µM	130 nM
11500 nM	c1cc(C2=N[C@H]3CCCC[C@@H]3N2)ccc1OCCCOc1ccc(C2=N[C@@H]3CCCC[C@H]3N2)cc1 [TCMDC-137803]	57.55%	38.02 µM	730 nM
1420 nM	Nc1nc(N)c2c(ccc3c2ccn3Cc2cccc(F)c2)n1 [TCMDC-137810]	0.71%	0.06 µM	3 nM
2010 nM	Nc1nc(N)c2c(ccc3c2ccn3Cc2ccc(-c3ccccc3)cc2)n1 [TCMDC-137813]	26.93%	1.16 µM	50 nM
1670 nM	COc1c(OC)c(OC)c2ccccc2c1CNCCCCCCNCc1c(OC)c(OC)c(OC)c2ccccc12.Cl [TCMDC-137827]	-6.56%	2.95 µM	760 nM
920 nM	C#CCCOc1ccc2ccccc2c1CNCCCCCCNCc1c(OCCC#C)ccc2ccccc12 [TCMDC-137832]	12.79%	4.79 µM	810 nM
4420 nM	Nc1nc(N)c2c(ccc3[nH]c(-c4ccccc4Cl)nc32)n1 [TCMDC-137840]	22.85%	2.32 µM	230 nM

Second part, the compound before the results:

SMILES	IC50 [2]	Gametocytes mean ATP inhibition at 2µM (%) [1]	HepG2 cells mean TOX50 (HepG2 cells)	IC50 [3]
COc1cc2c(cc1CCNCCCCNCCc1cc3c(cc1OC)CCCC3)CCCC2.CS(=O)(=O)O [TCMDC-137319]	890 nM	88.42%	1.86 µM	1000 nM
COc1ccc2c(c1CCNCCCCNCCc1c(OC)ccc3c1CCCC3)CCCC2.CS(=O)(=O)O [TCMDC-137324]	640 nM	95.49%	1.68 µM	380 nM
C=CCOc1ccc2ccccc2c1CNCCCCCCNCc1c(OCC=C)ccc2ccccc12.CS(=O)(=O)O [TCMDC-137340]	700 nM	58.99%	1.93 µM	860 nM
Cl.c1ccc2c(Nc3ccc(Cc4ccc(Nc5c6ccccc6nc6ccccc56)cc4)cc3)c3ccccc3nc2c1 [TCMDC-137354]	1040 nM	-29.34%	3.85 µM	160 nM
Br.C/C=C/C=C/C1=NCCc2cc(OCCC)ccc21 [TCMDC-137442]	1300 nM	30.75%	18.29 µM	910 nM
Cl.N=C(NCCCCC1CCCCC1)c1cccc(C(=N)NCCCCC2CCCCC2)n1 [TCMDC-137452]	1050 nM	95.86%	1.82 µM	400 nM
CC(CNC(=N)c1cccc(C(=N)NCC(C)Oc2cccc(C3CCCCC3)c2)n1)Oc1cccc(C2CCCCC2)c1.Cl (centres unmarked) [TCMDC-137455]	1270 nM	92.56%	2.16 µM	920 nM
N=C(NCC1CC1c1ccccc1)c1cccc(C(=N)NCC2CC2c2ccccc2)n1 (centres unmarked) [TCMDC-137456]	1890 nM	24.65%	6.21 µM	1760 nM
CCCCN(CCCC)CCCCNc1c2ccc(Cl)cc2nc2ccc(OC)cc12.Cl [TCMDC-137460]	1970 nM	11.49%	4.73 µM	180 nM
COc1cc(CNCCCCCCNCc2cc(OC)c3ccccc3c2OC)c(OC)c2ccccc12.CS(=O)(=O)O [TCMDC-137502]	1670 nM	1.18%	3.67 µM	700 nM
CC(CO)(CO)NCc1cc2c3ccccc3c(CNC(C)(CO)CO)cc2c2ccccc12.CS(=O)(=O)O [TCMDC-137752]	4420 nM	71.86%	7.33 µM	720 nM
CS(=O)(=O)O.CSc1ccc2ccccc2c1CCNCCCCNCCc1c(SC)ccc2ccccc12 [TCMDC-137763]	1010 nM	93.38%	1.82 µM	410 nM
COc1cc2ccccc2c(CNCCCCCCNCc2c(OC)c(OC)cc3ccccc23)c1OC.CS(=O)(=O)O [TCMDC-137795]	670 nM	13.93%	4.62 µM	1110 nM
COc1ccc2ccc(OC)c(CNCCCCCCNCc3c(OC)ccc4ccc(OC)cc34)c2c1.CS(=O)(=O)O [TCMDC-137796]	1210 nM	68.84%	3.31 µM	700 nM
COc1ccc2cc(CNCCCCCCNCc3ccc4cc(OC)ccc4c3)ccc2c1.CS(=O)(=O)O [TCMDC-137797]	590 nM	35.46%	1.55 µM	620 nM
CS(=O)(=O)O.FC(F)(F)COc1ccc2ccccc2c1CNCCCCCCNCc1c(OCC(F)(F)F)ccc2ccccc12 [TCMDC-137816]	1090 nM	27.96%	1.84 µM	350 nM
CCCCSc1c(CNCCCCCCNCc2ccc3ccccc3c2SCCCC)ccc2ccccc12.CS(=O)(=O)O [TCMDC-137825]	970 nM	10.43%	2.76 µM	1000 nM
COc1c(CNCCCCCCNCc2c(OC)c(OC)c3ccccc3c2OC)c(OC)c2ccccc2c1OC.CS(=O)(=O)O [TCMDC-137837]	3690 nM	18.67%	4.42 µM	960 nM
C#CCOc1ccc2ccccc2c1CNCCCCCCNCc1c(OCC#C)ccc2ccccc12.CS(=O)(=O)O [TCMDC-137838]	1050 nM	77.84%	2.92 µM	780 nM
COc1cc2ccccc2c(OC)c1CCNCCCCNCCc1c(OC)cc2ccccc2c1OC.CS(=O)(=O)O [TCMDC-137842]	1240 nM	60.27%	4.17 µM	890 nM
CCCCOc1cc(OC)c2ccccc2c1CCNCCCCNCCc1c(OCCCC)cc(OC)c2ccccc12.CS(=O)(=O)O [TCMDC-137845]	760 nM	95.21%	1.97 µM	1050 nM
CCCCOc1c(CCNCCCCNCCc2cc(OC)c3ccccc3c2OCCCC)cc(OC)c2ccccc12.CS(=O)(=O)O [TCMDC-137848]	610 nM	84.96%	1.97 µM	930 nM
CS(=O)(=O)O.FC(F)(F)COc1ccc(CNCCCCCCNCc2ccc(OCC(F)(F)F)c3ccccc23)c2ccccc12 [TCMDC-137853]	630 nM	94.02%	2.46 µM	400 nM
COc1c(CCNCCCCNCCc2cc(Cl)c3ccccc3c2OC)cc(Cl)c2ccccc12.CS(=O)(=O)O [TCMDC-137869]	330 nM	96.85%	1.78 µM	170 nM
